Reference: patent US9364467B2 (Salix Pharmaceuticals, Ltd, priority 2012, dated 2016)
Converted amounts (≈) assume the structure as drawn. Read-outs that look alike come from different tables or passages of the source.

What was measured:
S. xylosus = experiment: In vitro activity (MIC) against S. xylosus strains
S. epidermidis = experiment: In vitro activity (MIC) against S. epidermidis strains
[1] = tested on: Enterococcus spp. strains; experiment: In vitro activity (MIC) against Enterococcus spp. strains
[2] = Enterococcus, read-out: Mode (MIC), Enterococcus spp. strains

SMILES: COC1/C=C/O[C@@]2(C)Oc3c(C)c(O)c4c(O)c(c5c(c4c3C2=O)NC2C=C(C)C=CN52)NC(=O)/C(C)=C\C=C\C(C)C(O)C(C)C(O)C(C)C(O)C1C (stereo partly drawn) [25-desacetyl rifaximin]
- MIC (S. xylosus; Staphylococcus xylosus): 2 µg/mL (≈ 2.68 µM)
- MIC (S. xylosus; strain S. xylosus 346): 2 µg/mL (≈ 2.68 µM)
- MIC (S. epidermidis; Staphylococcus epidermidis): 0.12 µg/mL (≈ 0.161 µM)
- MIC (S. epidermidis; strain S. epidermidis 354): 0.12 µg/mL (≈ 0.161 µM)
- MIC ([1]; ATCC E. faecalis 29212): 16 µg/mL (≈ 21.5 µM)
- MIC ([1]; E. faecalis 181): > 16 µg/mL
- MIC ([1]; E. faecalis 186): 4 µg/mL (≈ 5.36 µM)
- MIC ([1]; E. faecalis 187): 4 µg/mL (≈ 5.36 µM)
- MIC ([1]; E. faecalis 193): 4 µg/mL (≈ 5.36 µM)
- MIC ([1]; E. faecalis 194): > 16 µg/mL
- MIC ([1]; E. faecalis 200): > 16 µg/mL
- MIC ([1]; E. faecalis 204): 4 µg/mL (≈ 5.36 µM)
- MIC ([1]; E. faecalis 205): > 16 µg/mL
- MIC ([1]; E. faecalis 210): 4 µg/mL (≈ 5.36 µM)
- MIC ([1]; E. faecalis 227): > 16 µg/mL
- MIC ([1]; E. faecalis 228): 4 µg/mL (≈ 5.36 µM)
- MIC ([1]; E. faecalis 232): 4 µg/mL (≈ 5.36 µM)
- MIC ([1]; E. faecalis 235): > 16 µg/mL
- MIC ([1]; E. faecalis 237): 4 µg/mL (≈ 5.36 µM)
- MIC ([1]; E. faecalis 239): > 16 µg/mL
- MIC ([1]; E. faecalis 242): > 16 µg/mL
- MIC ([1]; E. faecalis 243): > 16 µg/mL
- MIC ([1]; E. faecalis 245): > 16 µg/mL
- MIC ([1]; E. faecalis 249): 4 µg/mL (≈ 5.36 µM)
- MIC ([1]; E. faecalis 250): > 16 µg/mL
- MIC ([1]; E. faecalis 251): > 16 µg/mL
- MIC ([1]; E. faecalis 255): 4 µg/mL (≈ 5.36 µM)
- MIC ([1]; E. faecium 8): 4 µg/mL (≈ 5.36 µM)
- MIC ([1]; E. faecium 13): 4 µg/mL (≈ 5.36 µM)
- MIC ([1]; E. faecium 174): > 16 µg/mL
- MIC ([1]; E. faecium 185): > 16 µg/mL
- MIC ([1]; E. faecium 188): > 16 µg/mL
- MIC ([1]; E. faecium 189): 8 µg/mL (≈ 10.7 µM)
- MIC ([1]; E. faecium 190): > 16 µg/mL
- MIC ([1]; E. faecium 191): > 16 µg/mL
- MIC ([1]; E. faecium 192): 8 µg/mL (≈ 10.7 µM)
- MIC ([1]; E. faecium 198): > 16 µg/mL
- MIC ([1]; E. faecium 199): > 16 µg/mL
- MIC ([1]; E. faecium 201): > 16 µg/mL
- MIC ([1]; E. faecium 203): 8 µg/mL (≈ 10.7 µM)
- MIC ([1]; E. faecium 207): > 16 µg/mL
- MIC ([1]; E. faecium 208): 4 µg/mL (≈ 5.36 µM)
- MIC ([1]; E. faecium 209): > 16 µg/mL
- MIC ([1]; E. faecium 212): > 16 µg/mL
- MIC ([1]; E. faecium 215): > 16 µg/mL
- MIC ([1]; E. faecium 217): 4 µg/mL (≈ 5.36 µM)
- MIC ([1]; E. faecium 221): > 16 µg/mL
- MIC ([1]; E. faecium 222): > 16 µg/mL
- MIC ([1]; E. faecium 223): > 16 µg/mL
- MIC ([1]; E. faecium 225): > 16 µg/mL
- MIC ([1]; E. faecium 229): 8 µg/mL (≈ 10.7 µM)
- MIC ([1]; E. faecium 230): 4 µg/mL (≈ 5.36 µM)
- MIC ([1]; E. faecium 231): > 16 µg/mL
- MIC ([1]; E. faecium 236): 4 µg/mL (≈ 5.36 µM)
- MIC ([1]; E. faecium 238): > 16 µg/mL
- MIC ([1]; E. faecium 240): > 16 µg/mL
- MIC ([1]; E. faecium 248): > 16 µg/mL
- MIC50 ([1]; Enterococcus): > 16 µg/mL
- MIC90 ([1]; Enterococcus): > 16 µg/mL
- MIC [1, 2]: > 16 µg/mL

SMILES: CO[C@H]1/C=C/O[C@@]2(C)Oc3c(C)c(O)c4c(O)c(c5c(nc6cc(C)ccn65)c4c3C2=O)NC(=O)/C(C)=C\C=C\[C@H](C)[C@H](O)[C@@H](C)[C@@H](O)[C@@H](C)[C@H](OC(C)=O)[C@@H]1C [Rifaximin, reference compound]
- MIC (S. xylosus; Staphylococcus xylosus): 0.5 µg/mL (≈ 0.636 µM)
- MIC (S. xylosus; strain S. xylosus 346): 0.5 µg/mL (≈ 0.636 µM)
- MIC (S. epidermidis; Staphylococcus epidermidis): 0.06 µg/mL (≈ 0.0763 µM)
- MIC (S. epidermidis; strain S. epidermidis 354): 0.06 µg/mL (≈ 0.0763 µM)
- MIC ([1]; ATCC E. faecalis 29212): 4 µg/mL (≈ 5.09 µM)
- MIC ([1]; E. faecalis 181): 4 µg/mL (≈ 5.09 µM)
- MIC ([1]; E. faecalis 186): 4 µg/mL (≈ 5.09 µM)
- MIC ([1]; E. faecalis 187): 4 µg/mL (≈ 5.09 µM)
- MIC ([1]; E. faecalis 193): 4 µg/mL (≈ 5.09 µM)
- MIC ([1]; E. faecalis 194): 4 µg/mL (≈ 5.09 µM)
- MIC ([1]; E. faecalis 200): > 16 µg/mL
- MIC ([1]; E. faecalis 204): 4 µg/mL (≈ 5.09 µM)
- MIC ([1]; E. faecalis 205): 4 µg/mL (≈ 5.09 µM)
- MIC ([1]; E. faecalis 210): 4 µg/mL (≈ 5.09 µM)
- MIC ([1]; E. faecalis 227): > 16 µg/mL
- MIC ([1]; E. faecalis 228): 4 µg/mL (≈ 5.09 µM)
- MIC ([1]; E. faecalis 232): 4 µg/mL (≈ 5.09 µM)
- MIC ([1]; E. faecalis 235): 16 µg/mL (≈ 20.4 µM)
- MIC ([1]; E. faecalis 237): 4 µg/mL (≈ 5.09 µM)
- MIC ([1]; E. faecalis 239): 8 µg/mL (≈ 10.2 µM)
- MIC ([1]; E. faecalis 242): > 16 µg/mL
- MIC ([1]; E. faecalis 243): 16 µg/mL (≈ 20.4 µM)
- MIC ([1]; E. faecalis 245): > 16 µg/mL
- MIC ([1]; E. faecalis 249): 4 µg/mL (≈ 5.09 µM)
- MIC ([1]; E. faecalis 250): 4 µg/mL (≈ 5.09 µM)
- MIC ([1]; E. faecalis 251): 8 µg/mL (≈ 10.2 µM)
- MIC ([1]; E. faecalis 255): 4 µg/mL (≈ 5.09 µM)
- MIC ([1]; E. faecium 8): 4 µg/mL (≈ 5.09 µM)
- MIC ([1]; E. faecium 13): 4 µg/mL (≈ 5.09 µM)
- MIC ([1]; E. faecium 174): 8 µg/mL (≈ 10.2 µM)
- MIC ([1]; E. faecium 185): > 16 µg/mL
- MIC ([1]; E. faecium 188): 8 µg/mL (≈ 10.2 µM)
- MIC ([1]; E. faecium 189): 4 µg/mL (≈ 5.09 µM)
- MIC ([1]; E. faecium 190): 16 µg/mL (≈ 20.4 µM)
- MIC ([1]; E. faecium 191): > 16 µg/mL
- MIC ([1]; E. faecium 192): 2 µg/mL (≈ 2.54 µM)
- MIC ([1]; E. faecium 198): 16 µg/mL (≈ 20.4 µM)
- MIC ([1]; E. faecium 199): 8 µg/mL (≈ 10.2 µM)
- MIC ([1]; E. faecium 201): 16 µg/mL (≈ 20.4 µM)
- MIC ([1]; E. faecium 203): 4 µg/mL (≈ 5.09 µM)
- MIC ([1]; E. faecium 207): 4 µg/mL (≈ 5.09 µM)
- MIC ([1]; E. faecium 208): 2 µg/mL (≈ 2.54 µM)
- MIC ([1]; E. faecium 209): 16 µg/mL (≈ 20.4 µM)
- MIC ([1]; E. faecium 212): > 16 µg/mL
- MIC ([1]; E. faecium 215): > 16 µg/mL
- MIC ([1]; E. faecium 217): 8 µg/mL (≈ 10.2 µM)
- MIC ([1]; E. faecium 221): 8 µg/mL (≈ 10.2 µM)
- MIC ([1]; E. faecium 222): > 16 µg/mL
- MIC ([1]; E. faecium 223): > 16 µg/mL
- MIC ([1]; E. faecium 225): 4 µg/mL (≈ 5.09 µM)
- MIC ([1]; E. faecium 229): 2 µg/mL (≈ 2.54 µM)
- MIC ([1]; E. faecium 230): 8 µg/mL (≈ 10.2 µM)
- MIC ([1]; E. faecium 231): 16 µg/mL (≈ 20.4 µM)
- MIC ([1]; E. faecium 236): 2 µg/mL (≈ 2.54 µM)
- MIC ([1]; E. faecium 238): 16 µg/mL (≈ 20.4 µM)
- MIC ([1]; E. faecium 240): > 16 µg/mL
- MIC ([1]; E. faecium 248): > 16 µg/mL
- MIC50 ([1]; Enterococcus): 8 µg/mL (≈ 10.2 µM)
- MIC90 ([1]; Enterococcus): > 16 µg/mL
- MIC [1, 2]: 4 µg/mL (≈ 5.09 µM)
